Laboratory results as given in patent US20240317743A1, “Solid Forms of BCL-2 Inhibitors, Method of Preparation, and Use Thereof” (BeiGene, Ltd., priority 2021, published 2024).
Converted amounts (≈) assume the structure as drawn. Values belong to the compound of their own block, whether it stands above or below them.

Legend:
Type in all cases: physicochemical
[1] = DVS (Method A) water uptake / hygroscopicity; conditions: 25° C./80% RH
Method: DVS of the obtained forms in the present disclosure was measured via an SMS (Surface Measurement Systems) DVS Intrinsic, without special instructions (Method A). The relative humidity at 25° C. was calibrated against deliquescence point of LiCl, Mg(NO3)2 and KCl. Parameters for the DVS test are listed as follows. [table]

[2] = Solid form solubility, concentration by HPLC at 24 hours
Method: The solubility of Compound 1 in different physical forms was tested in water, 0.1 N HCl, pH 4.5 acetate buffer and pH 6.8 phosphate buffer. At 24 hours of time point, the concentration of Compound 1 was detected by HPLC.

[3] = Long term and accelerated physical and chemical stability test, impurities by HPLC
Method: Long term and accelerated stability studies were conducted in different physical forms of Compound 1, by storing the samples at 25±2° C./60±5% RH and 40±2° C./75±5% RH conditions for up to 6 months. And, the content of the total impurities of each sample was tested by HPLC.

[4] = Physical stability: storage under humidity/temperature, form checked by XRPD
Method: To evaluate the physicochemical stability, store 1˜3 mg of Forms B, S, M, R, F, H and N samples were stored under 25° C./60% RH or 40° C./75% RH conditions for one week (unsealed) or 80° C. condition for 24 hrs (sealed).

[5] = Solid form stability of Form B: slurry or shaking in acetone/H2O system at 50° C., XRPD
Method: Evaluation of solid form stability of Form B was performed in acetone/H2O system at 50° C. About 2 mg of Form B sample was used to slurry or shake in the acetone/H2O (1:9, v/v) and H2O solution (saturated by amorphous sample).

[6] = Storage at RT, form checked by XRPD overlay; conditions: RT, ~3 days
Method: Form K was speculated as a methyl acetate solvate.
Thus, Form L was speculated as a metastable anhydrate/hydrate which could be de-solvated from the wet cake from the solvent system.
(peak) before decomposition (FIG. 16B). According to the integration of ^1H NMR result (FIG. 16C), the theoretical weight of chlorobenzene was calculated as 9.8%, which matched with the TGA weight loss. […] After heating the sample to 140° C., more diffraction peaks disappeared. Combined with the TGA, ^1H NMR data and heating experiment, Form P was speculated as a chlorobenzene solvate.

water uptake ([1]; listed as amorphous form): 1.8%
solubility ([2]; 0.1 N HCl): 35.30 µg/mL (≈ 39.7 µM)
solubility ([2]; pH 4.5 acetate buffer): no Compound 1 was detected
solubility ([2]; pH 6.8 phosphate buffer): no Compound 1 was detected
solubility ([2]; water): no Compound 1 was detected
change of chemical purity ([3]; 25±2° C./60±5% RH and 40±2° C./75±5% RH, up to 6 months): reduced significantly
total content of impurities ([3]; after 6 months at 40±2° C./75±5% RH): 4.2%
total content of impurities ([3]; before storage (initial)): 2.10%
SMILES: CC(C)c1ccccc1[C@@H]1CCCN1C1CC2(CCN(c3ccc(C(=O)NS(=O)(=O)c4ccc(NCC5CCC(C)(O)CC5)c([N+](=O)[O-])c4)c(Oc4cnc5[nH]ccc5c4)c3)CC2)C1 (stereo partly drawn) [Compound 1 amorphous, 2-((1H-pyrrolo[2,3-b]pyridin-5-yl)oxy)-N-((4-((((1r,4r)-4-hydroxy-4-methylcyclohexyl)methyl)amino)-3-nitrophenyl)sulfonyl)-4-(2-((S)-2-(2-isopropylphenyl)pyrrolidin-1-yl)-7-azaspiro[3.5]nonan-7-yl)benzamide]

hygroscopicity [1]: slight hygroscopicity
water uptake [1]: 0.9%
form change (XRPD overlay) ([4]; 25° C./60% RH, one week, unsealed): no form change
form change (XRPD overlay) ([4]; 40° C./75% RH, one week, unsealed): no form change
form change (XRPD overlay) ([4]; 80° C., sealed, 24 hrs): no form change
crystalline status (XRPD overlay) ([5]; shaking in H2O, about 4 hours): no form change was observed
crystalline status (XRPD overlay) ([5]; shaking in H2O, about 4 days): no form change was observed
crystalline status (XRPD overlay) ([5]; shaking in acetone/H2O (1:9, v/v), about 4 hours): no form change was observed
crystalline status (XRPD overlay) ([5]; shaking in acetone/H2O (1:9, v/v), about 4 days): no form change was observed
crystalline status (XRPD overlay) ([5]; slurrying in H2O, about 4 hrs): no form change was observed
crystalline status (XRPD overlay) ([5]; slurrying in H2O, about 4 days): a decrease of crystallinity was observed
crystalline status (XRPD overlay) ([5]; slurrying in acetone/H2O (1:9, v/v), about 4 days): a decrease of crystallinity was observed
SMILES: CC(C)c1ccccc1[C@@H]1CCCN1C1CC2(CCN(c3ccc(C(=O)NS(=O)(=O)c4ccc(NCC5CCC(C)(O)CC5)c([N+](=O)[O-])c4)c(Oc4cnc5[nH]ccc5c4)c3)CC2)C1 (stereo partly drawn) [Form B, 2-((1H-pyrrolo[2,3-b]pyridin-5-yl)oxy)-N-((4-((((1r,4r)-4-hydroxy-4-methylcyclohexyl)methyl)amino)-3-nitrophenyl)sulfonyl)-4-(2-((S)-2-(2-isopropylphenyl)pyrrolidin-1-yl)-7-azaspiro[3.5]nonan-7-yl)benzamide]

form change on storage [6]: convert back to Form N
SMILES: CC(C)c1ccccc1[C@@H]1CCCN1C1CC2(CCN(c3ccc(C(=O)NS(=O)(=O)c4ccc(NCC5CCC(C)(O)CC5)c([N+](=O)[O-])c4)c(Oc4cnc5[nH]ccc5c4)c3)CC2)C1 (stereo partly drawn) [Form T, 2-((1H-pyrrolo[2,3-b]pyridin-5-yl)oxy)-N-((4-((((1r,4r)-4-hydroxy-4-methylcyclohexyl)methyl)amino)-3-nitrophenyl)sulfonyl)-4-(2-((S)-2-(2-isopropylphenyl)pyrrolidin-1-yl)-7-azaspiro[3.5]nonan-7-yl)benzamide]
